Tests used:
HepG2 cells = assay: MTT cytotoxicity assay, HepG2; format: cell-based, human; details: Homo sapiens, HepG2, light or radiation study, HepG2, 660 nm irradiation 12 J/cm^2
From the text: To further quantitatively explore the in vitro anticancer potency of QTCy7-R, the methyl thiazolyltetrazolium (MTT) assay was employed to detect cell viability. […] Next, we evaluated the cytotoxicity under dark conditions of this series of compounds at high concentrations (Figure 9e), as due to the characteristics of mitochondrial accumulation, QTCy7-Me and QTCy7-Ph might lead to mitochondrial depolarization and apoptosis at high concentrations. However, its IC50 value could still reach about 60 μM, which was almost […] than those of all cyanine photosensitizers reported. […] The photocytotoxicity index value (dark IC50/light IC50) of QTCy7-Ac was >500, manifesting that QTCy7-Ac is a PS with high efficacy but low cytotoxicity, which is extremely promising in clinical application. […]
Cytotoxicity was tested by the reduction of methyl thiazolyl tetrazolium to formazan by succinic acid dehydrogenase in the mitochondria of living cells (MTT assay). HepG2 cells, MCF7 cells and 4T1 cells were seeded to 96-well microplates (Nunc, Denmark) with a density of 1 × 10^5 cells/mL cells in 100 μL DMEM medium and incubated at 37 °C for 24 h. When the cell density reached about 70%, the QTCy7-R with different concentrations (4, 3, 2, 1.5, 1, 0.75, 0.5, 0.25, 0 μM) in PBS were added to the wells of cells in dark condition, respectively. For light groups, the cell incubation conditions were the same as those of the dark group and the cells were further incubated for 2 h, subsequently, the cells were subjected to 660 nm irradiation (20 mW/cm2) for different time (10 min, 5 min and 2.5 min) corresponding to different light doses (12 J/cm2, 6 J/cm2 and 3 J/cm2). Then all the cells were incubated for 12 h, after which the MTT solution in DMEM (0.5 mg/ml, 100 μL) was added to each well and the cells were incubated at 37 °C for another 4 h. The MTT solution was carefully removed and 100 μL DMSO was added to dissolve formazan, and the absorbance of each well was measured by a multifunctional microplate reader at 570 nm and 630 nm. The cell viability was obtained by the following equation: […]
Where “OD” represent the absorbance at 570 nm and 630 nm, “ps” and “control” represent experimental groups and control groups, respectively. […]

[1] = Singlet oxygen quantum yield by DPBF decay curve method; format: physicochemical; details: in dichloromethane
Experimental: Afterward, the singlet oxygen yields of the series of molecules were preliminarily measured and analyzed by the 1,3-diphenylisobenzofuran (DPBF) decay curve method (Figures 2d,e and S2). […] Meanwhile, in order to exclude the effect of the rigid structure, ΦΔ of a Cy7-like reference molecule (TCy7C) with a rigidified structure but absence of an oxygen atom was measured. The singlet oxygen yield of TCy7C was 2.2%, even lower than that of TCy7 under the same conditions (Figure S3). […]
Photoexcited singlet oxygen production was detected by employed 1,3-diphenylisobenzofuran (DPBF) as the indicator. The absorbance of DPBF at 415 nm was regulated to about 1.0 in DCM. And the samples were irradiated with 660 nm light for various times, then the absorption spectra of different time nodes were recorded.
The singlet oxygen quantum yield (ΦΔ) was calculated by the following equation:
Where “Φ” represent the singlet oxygen quantum yield , “sam” and “std” represent QTCy7-R and MB, respectively. “m” is the slope of the absorbance of DPBF at 415 nm with time, F=1–10-O.D. (O.D. is the absorbance of samples at 660 nm). […]

[2] = UV-vis absorption, fluorescence emission, absolute fluorescence quantum yield and fluorescence lifetime; format: physicochemical
Experimental: First, the UV–vis absorption and fluorescence emission spectra of the series of compounds were measured and analyzed. […] Concurrently, the Stokes shifts of all four compounds were more than 60 nm (Figure 2a,b and Table 1), which could effectively improve the signal-to-noise ratio (SNR) of fluorescence compared to the ordinary TCy7. The fluorescence lifetimes of all four compounds were within 2 ns, indicating no delayed fluorescence generation (Figure 2c and Table 1). […]
Materials and Instrumentation
All the general chemicals used in this paper are purchased from Energy Chemical Co. and Innochem Chemical Co. unless otherwise specified. All solvents were […]
analytically pure. […]
All the other solvents and reagents used in this study were of analytical grade. All the BALB/c mice were purchased from Liaoning […]
III 500 spectrometers. Absorption and emission spectra for all the compounds were achieved on the Agilent Technologies CARY 60 UV -Vis spectrophotometer and VAEIAN CARY Eclipse fluorescence spectrop hotometer (Serial No. FL0812 -M018), […]
respectively. Unless otherwise specified, all spectroscopic tests were performed in a quartz cell (10×10 mm). Fluorescence quantum yield of all the compounds were measured on the HAMAMATSU absolute fluorescence quantum yield spectrometer (Serial No. C11347). Triplet lifetime of compounds were acquired on LP980 laser flash photolysis spectrometer (Edinburgh Instruments, U.K.). The cell confocal laser scanning microscope (CLSM) images were all obtained by using Olympus FV3000 confocal laser scanning microscope. […]
Figure 4, Figure S6 and Figure S7). The spin-orbital coupling (SOC) values between the S1/S1V and T2 were calculated with ORCA 4.13. Hole-Electron analysis was carried […]
ISC rate constants calculation […]
Triplet lifetime measurements
The triplet life of QTCy7-R was measured by LP980 laser flash photolysis spectrometer (Edinburgh Instruments Ltd.) in combination with a Nd:YAG laser (Surelite I-10, Continuum Electro-Optics, Inc.). The oxygen in the sample was removed by aerating nitrogen for 30 min. The samples (5 μM) were excited by a 610 nm laser pulse (1 Hz, 100 mJ per pulse, fwhm ≈ 7 ns) at 300 K. The triplet state decay kinetics were measured at the maximum absorption wavelengths of each compound.
Fluorescence lifetime and femtosecond time-resolved transient absorption spectra […]
The fluorescence lifetimes and femtosecond time-resolved transient absorption spectra of dyes were recorded on a freshly prepared samples using the time-correlated single photon counting (TCSPC) method (PicoQuant PicoHarp 300) at 300 K. The concentration is 10 μM, solvent is DCM.
Hepatoma carcinoma cells (HepG-2 cells), human mammary carcinoma (MCF-7) and mouse breast cancer cells (4T1) were maintained in Dulbecco’s modified Eagle’s

ΦΔ, singlet oxygen yield ([1]; DPBF method) [%]	ΦΔ, singlet oxygen quantum yield ([1]; methylene blue as standard, 660 nm irradiation)	ΦF, absolute fluorescence quantum yield [2] [%]	Δλ, Stokes shift ([2]; in dichloromethane) [nm]	λabs, maximum absorption wavelength ([2]; in dichloromethane) [nm]	λem, maximum emission wavelength ([2]; in dichloromethane) [nm]	τS, fluorescence lifetime ([2]; in dichloromethane) [ns]	Compound	IC50 (HepG2 cells) [µM]
–	–	–	–	–	–	–	C=Cc1c(C)c2cc3nc(c(CC(=O)O)c4[nH]c(cc5nc(cc1[nH]2)C(C)=C5CC)c(C)c4C(=O)O)[C@@H](CCC(=O)O)[C@@H]3C [Ce6, chlorin e6, reference compound]	3.5
2.6	0.026	19.3	23	770	793	1.54	CCN1/C(=C/C=C/C=C/C=C/c2sc3ccccc3[n+]2CC)Sc2ccccc21 [TCy7, reference compound]	–

Source: publication PMC10451034, “Highly Efficient Photosensitizers with Molecular Vibrational Torsion for Cancer Photodynamic Therapy” (ACS Central Science, 2023)
